Measurements: patent US20060063784A1, “Method of using substituted pyrazolo [1,5-a] pyrimidines” (priority 2004, published 2006)
Read-outs that look alike come from different tables or passages of the source.

Experiments:
[1] = tested on: 80S14 (p21-deficient) cells; experiment: Cytotoxicity assay using isogenic cell lines: IC50 in 80S14 (p21-deficient) cells, SRB; assay type: cell-based, human
How it was run: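 IC50 is the concentration halving proliferation relative to untreated controls, read from SRB absorbance (560 nm) after TCA fixation. Test agent dilutions (5 pM–50 μM or 170 pg/ml–10 μg/ml) were left on p21-deficient 80S14 cells (12,000/well, pre-incubated overnight) for 5 days at 37 °C.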

LoVo Colon cell line = experiment: Cytotoxicity assay using LoVo colon cell line, SRB; assay type: cell-based; conditions: read-out: Inhibition of LoVo
Protocol: Cytotoxicity Assay Using LoVo Colon Cell Line: • 1. LoVo Colon cell lines were cultured in RPMI 1640 medium (Gibco/Invitrogen Life Sciences) supplemented with 10% fetal bovine serum (FBS, Gibco) and 50 μg/ml entamicin (Gibco). Cells were maintained at 37° C. under 7% CO2. • 2. Cells were seeded in 96-well microtiter plates (Corning/Costar) in a volume of 0.15 ml of growth medium (4000 cells/well). Plates were incubated at 37° C. overnight (18-24 hours). • 3. Serial dilutions of the test agent were added to each well. Dilutions were prepared in growth medium. One of two dose ranges was used: 5 pM to 20 μM or 170 pg/ml to 10 μg/ml. Cells were incubated with the test compounds for 4 days at 37° C. • 4. Surviving cells were processed using the SRB asay, as described above.
5. The drug concentration that inhibits cell proliferation by 50% relative to untreated controls (IC50) was determined from cytotoxicity curves using the LSW Toolbox graphing application.

[2] = Homo sapiens, 120 h, 80S14 p21-deficient cells, 5 days incubation, SRB, read-out: IC50 for 80SI4
[3] = Homo sapiens, 96 h, LoVo colon cells, 4 days incubation, SRB
[4] = 80S14 p21-deficient cells, 5 days incubation, SRB, read-out: IC50 for 80SI4
[5] = LoVo colon cells, 4 days incubation, SRB

SMILES | IC50 [1, 2] | IC50 (LoVo Colon cell line; [3]) | other results
O=C(CC1CCCCCC1)Nc1cccc(-c2ccnc3c(C(=O)c4cccs4)cnn23)c1 [Example 75, 2-cycloheptyl-N-{3-[3-(thien-2-ylcarbonyl)pyrazolo[1,5-a]pyrimidin-7-yl]phenyl}acetamide] | < 1 µM | < 100 nM | –
O=C(CC1CC2CCC1C2)Nc1cccc(-c2ccnc3c(C(=O)c4cccs4)cnn23)c1 (centres unmarked) [Example 76, 2-bicyclo[2.2.1]hept-2-yl-N-{3-[3-(thien-2-ylcarbonyl)pyrazolo[1,5-a]pyrimidin-7-yl]phenyl}acetamide] | < 1 µM | < 100 nM | –
COc1ccccc1C(=O)Nc1cccc(-c2ccnc3c(C(=O)c4cccs4)cnn23)c1 [Example 93, 2-methoxy-N-{3-[3-(thien-2-ylcarbonyl)pyrazolo[1,5-a]pyrimidin-7-yl]phenyl}benzamide] | < 1 µM | < 100 nM | –
Cc1ccccc1C(=O)Nc1cccc(-c2ccnc3c(C(=O)c4cccs4)cnn23)c1 [Example 94, 2-methyl-N-{3-[3-(thien-2-ylcarbonyl)pyrazolo[1,5-a]pyrimidin-7-yl]phenyl}benzamide] | < 1 µM | < 100 nM | –
O=C(Nc1cccc(-c2ccnc3c(C(=O)c4cccs4)cnn23)c1)c1ccccc1Cl [Example 95, 2-chloro-N-{3-[3-(thien-2-ylcarbonyl)pyrazolo[1,5-a]pyrimidin-7-yl]phenyl}benzamide] | < 1 µM | < 100 nM | –
O=C(Nc1cccc(-c2ccnc3c(C(=O)c4cccs4)cnn23)c1)c1ccccc1C(F)(F)F [Example 96, N-{3-[3-(thien-2-ylcarbonyl)pyrazolo[1,5-a]pyrimidin-7-yl]phenyl}-2-(trifluoromethyl)benzamide] | < 1 µM | < 100 nM | –
CCCC(=O)Nc1cccc(-c2ccnc3c(C(=O)c4cccs4)cnn23)c1 [Example 148, N-{3-[3-(thien-2-ylcarbonyl)pyrazolo[1,5-a]pyrimidin-7-yl]phenyl}butanamide] | – | – | IC50 ([1]; Homo sapiens, 80S14, 120 h, read-out: IC50 for 80SI4 (uM)): < 1 µM; IC50 (LoVo Colon cell line; Homo sapiens, LoVo, 96 h): < 100 nM
CCCCC(=O)Nc1cccc(-c2ccnc3c(C(=O)c4cccs4)cnn23)c1 [Example 152, N-3{3-[3-(thien-2-ylcarbonyl)pyrazolo[1,5-a]pyrimidin-7-yl]phenyl}pentanamide] | – | – | IC50 [1, 4]: < 1 µM; IC50 (LoVo Colon cell line; [5]): < 100 nM
O=C(c1cccs1)c1cnn2c(-c3cccc(NC(=O)N4CCCCC4)c3)ccnc12 [Example 155, N-{3-[3-(thien-2-ylcarbonyl)pyrazolo[1,5-a]pyrimidin-7-yl]phenyl}piperidine-1-carboxamide] | < 1 µM | < 100 nM | –
CCCCN(C)C(=O)Nc1cccc(-c2ccnc3c(C(=O)c4cccs4)cnn23)c1 [Example 156, N-butyl-N-methyl-N′-{3-[3-(thien-2-ylcarbonyl)pyrazolo[1,5-a]primidin-7-yl]phenyl}urea] | – | – | IC50 [1, 4]: < 1 µM; IC50 (LoVo Colon cell line; [5]): 100 to 1000 nM
CCC(C)NC(=O)Nc1cccc(-c2ccnc3c(C(=O)c4cccs4)cnn23)c1 (centres unmarked) [Example 158, N-(sec-butyl)-N′-{3-[3-(thien-2-ylcarbonyl)pyrazolo[1,5-a]pyrimidin-7-yl]phenyl}urea] | < 1 µM | < 100 nM | –
CCN(CC)C(=O)Nc1cccc(-c2ccnc3c(C(=O)c4cccs4)cnn23)c1 [Example 159, N,N-diethyl-N′-{3-[3-(thien-2-ylcarbonyl)pyrazolo[1,5-a]pyrimidin-7-yl]phenyl}urea] | 1 to 10 µM | 100 to 1000 nM | –
O=C(NCC1CCCCC1)Nc1cccc(-c2ccnc3c(C(=O)c4cccs4)cnn23)c1 [Example 160, N-(cyclohexylmethyl)-N′-{3-[3-(thien-2-ylcarbonyl)pyrazolo[1,5-a]pyrimidin-7-yl]phenyl}urea] | 1 to 10 µM | 100 to 1000 nM | –
O=C(Nc1cccc(-c2ccnc3c(C(=O)c4cccs4)cnn23)c1)NC1CCCC1 [Example 162, N-cyclopentyl-N′-{3-[3-(thien-2-ylcarbonyl)pyrazolo[1,5-a]pyrimidin-7-yl]phenyl}urea] | < 1 µM | < 100 nM | –
O=C(NCC1CCCO1)Nc1cccc(-c2ccnc3c(C(=O)c4cccs4)cnn23)c1 (centres unmarked) [Example 163, N-(tetrahydrofuran-2-ylmethyl)-N′-{3-[3-(thien-2-ylcarbonyl)pyrazolo[1,5-a]pyrimidin-7-yl]phenyl}urea] | < 1 µM | 100 to 1000 nM | –
CC(C)(C)CNC(=O)Nc1cccc(-c2ccnc3c(C(=O)c4cccs4)cnn23)c1 [Example 164, N-neopentyl-N′-{3-[3-(thien-2-ylcarbonyl)pyrazolo[1,5-a]pyrimidin-7-yl]phenyl}urea] | < 1 µM | < 100 nM | –

SMILES | IC50 [1, 2] | IC50 (LoVo Colon cell line; [3]) | other results
CCCCCNC(=O)Nc1cccc(-c2ccnc3c(C(=O)c4cccs4)cnn23)c1 [Example 165, N-pentyl-N′-{3-[3-(thien-2-ylcarbonyl)pyrazolo[1,5-a]pyrimidin-7-yl]phenyl}urea] | < 1 µM | 100 to 1000 nM | –
COCCN(CCOC)C(=O)Nc1cccc(-c2ccnc3c(C(=O)c4cccs4)cnn23)c1 [Example 168, N,N-bis(2-methoxyethyl)-N′-{3-[3-(thien-2-ylcarbonyl)pyrazolo[1,5-a]pyrimidin-7-yl]phenyl}urea] | 10 to 50 µM | 1000 to 2000 nM | –
O=C(Nc1cccc(-c2ccnc3c(C(=O)c4cccs4)cnn23)c1)NC1CC1 [Example 169, N-cyclopropyl-N′-{3-[3-(thien-2-ylcarbonyl)pyrazolo[1,5-a]pyrimidin-7-yl]phenyl}urea] | 1 to 10 µM | 100 to 1000 nM | –
O=C(c1cccs1)c1cnn2c(-c3cccc(NC(=O)N4CCCC4)c3)ccnc12 [Example 170, N-{3-[3-(thien-2-ylcarbonyl)pyrazolo[1,5-a]pyrimidin-7-yl]phenyl}pyrrolidine-1-carboxamide] | 1 to 10 µM | 100 to 1000 nM | –
O=C(Nc1cccc(-c2ccnc3c(C(=O)c4cccs4)cnn23)c1)OC1CCCC1 [Example 171, cyclopentyl 3-[3-(thien-2-ylcarbonyl)pyrazolo[1,5-a]pyrimidin-7-yl]phenylcarbamate] | < 1 µM | < 100 nM | –
O=C(Nc1cccc(-c2ccnc3c(C(=O)c4cccs4)cnn23)c1)OC1CCCCC1 [Example 172, cyclohexyl 3-(3-(thien-2-ylcarbonyl)pyrazolo[1,5-a]pyrimidin-7-yl]phenylcarbamate] | < 1 µM | < 100 nM | –
O=C(Nc1cccc(-c2ccnc3c(C(=O)c4cccs4)cnn23)c1)OC1C=CCCC1 (centres unmarked) [Example 173, cyclohex-2-en-1-yl 3-[3-(thien-2-ylcarbonyl)pyrazolo[1,5-a]pyrimidin-7-yl]phenylcarbamate] | < 1 µM | < 100 nM | –
O=C(Nc1cccc(-c2ccnc3c(C(=O)c4cccs4)cnn23)c1)OCC1CCC1 [Example 174, cyclobutylmethyl 3-[3-(thien-2-ylcarbonyl)pyrazolo[1,5-a]pyrimidin-7-yl]phenylcarbamate] | < 1 µM | < 100 nM | –
O=C(Nc1cccc(-c2ccnc3c(C(=O)c4cccs4)cnn23)c1)OCC1CCCCC1 [Example 175, cyclohexylmethyl 3-[3-(thien-2-ylcarbonyl)pyrazolo[1,5-a]pyrimidin-7-yl]phenylcarbamate] | < 1 µM | < 100 nM | –
O=C(Nc1cccc(-c2ccnc3c(C(=O)c4cccs4)cnn23)c1)OC1CCOCC1 [Example 176, tetrahydro-2H-pyran-4-yl 3-[3-(thien-2-ylcarbonyl)pyrazolo[1,5-a]pyrimidin-7-yl]phenylcarbamate] | < 1 µM | < 100 nM | –
CC(C)=CCOC(=O)Nc1cccc(-c2ccnc3c(C(=O)c4cccs4)cnn23)c1 [Example 177, 3-methylbut-2-enyl 3-[3-(thien-2-ylcarbonyl)pyrazolo[1,5-a]pyrimidin-7-yl]phenylcarbamate] | 1 to 10 µM | < 100 nM | –
CSCCOC(=O)Nc1cccc(-c2ccnc3c(C(=O)c4cccs4)cnn23)c1 [Example 178, 2-(methylthio)ethyl 3-[3-(thien-2-ylcarbonyl)pyrazolo[1,5-a]pyrimidin-7-yl]phenylcarbamate] | < 1 µM | < 100 nM | –
CCCOC(=O)Nc1cccc(-c2cc(C)nc3c(C(=O)c4cccs4)cnn23)c1 [Example 194, propyl 3-[5-methyl-3-(thien-2-ylcarbonyl)pyrazolo[1,5-a]pyrimidin-7-yl]phenylcarbamate] | < 1 µM | < 100 nM | –
CCCCOC(=O)Nc1cccc(-c2cc(C)nc3c(C(=O)c4cccs4)cnn23)c1 [Example 195, butyl 3-[5-methyl-3-(thien-2-ylcarbonyl)pyrazolo[1,5-a]pyrimidin-7-yl]phenylcarbamate] | < 1 µM | < 100 nM | –
C=CCOC(=O)Nc1cccc(-c2cc(C)nc3c(C(=O)c4cccs4)cnn23)c1 [Example 196, allyl 3-[5-methyl-3-(thien-2-ylcarbonyl)pyrazolo[1,5-a]pyrimidin-7-yl]phenylcarbamate] | < 1 µM | 100 to 1000 nM | –
